Test results published in patent US20150104466A1, “CYTOMEGALOVIRUS DISINTEGRIN-LIKE PEPTIDES” (priority 2013, published 2015).

Assays:
HCMV strain AD169 = experiment: Virus entry assay: HCMV infectivity by IE gene expression (immunofluorescence); format: cell-based, Human cytomegalovirus; details: NHDFs treated with peptide or antibody prior to HCMV challenge
Procedure: (§1) For CMV entry assays, subconfluent cells were grown on glass coverslips in 12-well plates. Integrin neutralizing antibodies or peptides were incubated in serum-free DMEM with cell monolayer for 30 minutes at 37° C. Cells were washed with phosphate-buffered saline (PBS) and incubated with HCMV strain AD169, MCMV Smith strain, or MCMV-GFP for 60 minutes at 37° C. Any non-penetrated virus was inactivated with low-pH citrate buffer (40 mM citric acid, 10 mM KCl, 135 mM NaCl, pH 3.0). The cells were incubated 20-24 hours at 37° C. in DMEM supplemented with 2% bovine calf serum (BCS). […] Experiments were performed in triplicate with a minimum of 1000 cells scored per coverslip. […] Cells were incubated 6 hours at 37° C. in DMEM supplemented with 10% BCS prior to lysis (100 mM sodium phosphate, 10 mM KCl, 1 mM magnesium sulfate, 0.1% NP-40, pH 7.4). β-galactosidase activity was measured by addition of o-nitrophenyl-β-D-galactopyranoside (ONPG) and the absorbance was monitored at 420 nm.
FIG. 2A presents the results of a series of assays wherein NHDFs were treated with HCMV gB disintegrin-like peptide, gB disintegrin-like Null peptide, RGD, or RGE peptide prior to HCMV challenge (as indicated in the FIG. 2A). Infectivity was determined by IE gene expression. […]

MCMV = experiment: Virus entry assay: MCMV infectivity (e1-positive cells); format: cell-based, Murine cytomegalovirus; details: mouse fibroblasts (murine 3T3) treated with peptide, then MCMV challenge
Procedure: as §1
FIG. 4B is a histogram showing the results of an assay wherein GD25, GD25β1 and 3T3 cells were treated with β1, β3, and β1+β3 antibodies, followed by MCMV infection. As described above, infectivity was determined by scoring e1-(early protein) positive cells. […]

HSV-1(KOS)gL86 = experiment: HSV entry assay (β-galactosidase activity); format: cell-based, herpes simplex virus-1; details: cells treated with peptide, then HSV-1 challenge
Procedure: For CMV entry assays, subconfluent cells were grown on glass coverslips in 12-well plates. Integrin neutralizing antibodies or peptides were incubated in serum-free DMEM with cell monolayer for 30 minutes at 37° C. Cells were washed with phosphate-buffered saline (PBS) and incubated with HCMV strain AD169, MCMV Smith strain, or MCMV-GFP for 60 minutes at 37° C. Any non-penetrated virus was inactivated with low-pH citrate buffer (40 mM citric acid, 10 mM KCl, 135 mM NaCl, pH 3.0). The cells were incubated 20-24 hours at 37° C. in DMEM supplemented with 2% bovine calf serum (BCS). Immunofluorescence analysis was performed as previously described^28 with either mouse anti-IE monoclonal antibody 1203, mouse anti-pp65 monoclonal antibody or rabbit anti-MCMV el polyclonal, followed by detection with a fluorescein-conjugated goat anti-mouse secondary or a fluorescein-conjugated goat anti-rabbit secondary antibody. Nuclei were stained with 300 nM 4′,6-diamidino-2-phenylindole (DAPI). Experiments were performed in triplicate with a minimum of 1000 cells scored per coverslip. […] Cells were incubated 6 hours at 37° C. in DMEM supplemented with 10% BCS prior to lysis (100 mM sodium phosphate, 10 mM KCl, 1 mM magnesium sulfate, 0.1% NP-40, pH 7.4). β-galactosidase activity was measured by addition of o-nitrophenyl-β-D-galactopyranoside (ONPG) and the absorbance was monitored at 420 nm.

HCMV AD 169 = experiment: Virus binding assay: HCMV attachment to NHDF cells at 4° C. (gB ELISA); format: cell-based, Human cytomegalovirus; details: 1 mM peptide, 1:50 DE9, α2 and α6 antibodies 20 μg/mL
Procedure: NHDF cells were grown in 96-well plates and treated with integrin-neutralizing antibodies, peptides, or heparin for 60 minutes at 4° C. Cells were then challenged with HCMV AD 169 at a multiplicity of infection (MOI) of 5 pfu/cell for 60 minutes at 4° C. Unbound virus was removed and cells were washed and fixed with 3% paraformaldehyde. Bound HCMV was detected with monoclonal antibody 27-78, horseradish peroxidase (HRP)-conjugated goat anti-mouse secondary antibody, and ImmunoPure TMB Substrate Kit (Pierce, Rockford, Ill.). Absorbance was measured at 450 nm. All experiments were performed in triplicate.
During virus infection, integrins are utilized as primary viral attachment receptors or as post-attachment (fusion-activating) or internalization receptors.^11 To determine at which step in the HCMV entry pathway integrins are functioning, cell binding (i.e., attachment) experiments were performed, as well as assays to measure viral payload delivery into the cytoplasm (internalization). For the binding assays, virus was bound at 4° C. to allow for stable virus binding, but to restrict fusion and internalization. The results are depicted in FIG. 6A. […] Attachment was measured by gB ELISA.

HCMV = experiment: Viral payload delivery: pp65 localization in fibroblasts after HCMV infection; format: cell-based, Human cytomegalovirus; details: human fibroblasts treated, then infected with HCMV
Procedure: as §1
Next, an assay was performed that directly measured delivery of an internal virion component. […] FIG. 6B is a histogram showing the results of a series of assays wherein human fibroblasts were treated with various integrin-blocking agents, infected with HCMV, and then assayed for viral payload as measured by pp65 localization. […]

NHDF cells = experiment: Cytoskeletal rearrangement in NHDF cells (actin staining with phalloidin); format: cell-based, human; details: compared to buffer alone
Source text: gBDLD Triggers Cytoskeletal Rearrangements: β1 integrins are known inducers of broad signal transduction events. […] To test the role of gBDLD in mediating signaling events, we stimulated NHDF cells with buffer alone, gBDLD, or a known cytoskeletal reorganizer (EGF), followed by actin staining with phalloidin.

In the case of “RVCSMAQGTDLIRFERNIIC (listed as Human cytomegalovirus) [gB disintegrin-like peptide, 20 amino acid synthetic peptide encompassing the HCMV gB disintegrin-like domain]”, the “inhibition of HCMV infectivity compared to infectivity seen with no treatment” value (HCMV strain AD169) is reported as “dose-dependent inhibitory response to infection”, the “MCMV infectivity after peptide treatment” value (MCMV) is reported as “dramatic reduction in MCMV infectivity” and the “ability of HSV-1 to infect cells after peptide treatment” value (HSV-1(KOS)gL86) is reported as “no effect”. For the same substance, the “HCMV attachment (binding) to host cells” value (HCMV AD 169) was “no effect on HCMV attachment” and the “uptake of pp65 tegument protein” value (HCMV) was “little uptake of the pp65 tegument protein”.

“EGF: a known cytoskeletal reorganizer [reference compound]” was tested, and the “reorganization of the cytoskeleton” value (NHDF cells) was “triggered a dramatic reorganization of the cytoskeleton”.

With “AVCSMAGGTAAIRAERNIIC (listed as Human cytomegalovirus) [gB disintegrin-like null peptide, null peptide containing alanine substitutions in the disintegrin-like consensus residues, reference compound]” the “inhibition of HCMV infectivity compared to infectivity seen with no treatment” value (HCMV strain AD169) was “HCMV was able to infect”.
